{"source": "paper PMC7316778", "about": "(Nature Communications, 2020)", "key": {"JAK1": {"biological_target": "JAK1 (Homo sapiens, UniProt P23458)", "sequence (P23458 whole entry)": "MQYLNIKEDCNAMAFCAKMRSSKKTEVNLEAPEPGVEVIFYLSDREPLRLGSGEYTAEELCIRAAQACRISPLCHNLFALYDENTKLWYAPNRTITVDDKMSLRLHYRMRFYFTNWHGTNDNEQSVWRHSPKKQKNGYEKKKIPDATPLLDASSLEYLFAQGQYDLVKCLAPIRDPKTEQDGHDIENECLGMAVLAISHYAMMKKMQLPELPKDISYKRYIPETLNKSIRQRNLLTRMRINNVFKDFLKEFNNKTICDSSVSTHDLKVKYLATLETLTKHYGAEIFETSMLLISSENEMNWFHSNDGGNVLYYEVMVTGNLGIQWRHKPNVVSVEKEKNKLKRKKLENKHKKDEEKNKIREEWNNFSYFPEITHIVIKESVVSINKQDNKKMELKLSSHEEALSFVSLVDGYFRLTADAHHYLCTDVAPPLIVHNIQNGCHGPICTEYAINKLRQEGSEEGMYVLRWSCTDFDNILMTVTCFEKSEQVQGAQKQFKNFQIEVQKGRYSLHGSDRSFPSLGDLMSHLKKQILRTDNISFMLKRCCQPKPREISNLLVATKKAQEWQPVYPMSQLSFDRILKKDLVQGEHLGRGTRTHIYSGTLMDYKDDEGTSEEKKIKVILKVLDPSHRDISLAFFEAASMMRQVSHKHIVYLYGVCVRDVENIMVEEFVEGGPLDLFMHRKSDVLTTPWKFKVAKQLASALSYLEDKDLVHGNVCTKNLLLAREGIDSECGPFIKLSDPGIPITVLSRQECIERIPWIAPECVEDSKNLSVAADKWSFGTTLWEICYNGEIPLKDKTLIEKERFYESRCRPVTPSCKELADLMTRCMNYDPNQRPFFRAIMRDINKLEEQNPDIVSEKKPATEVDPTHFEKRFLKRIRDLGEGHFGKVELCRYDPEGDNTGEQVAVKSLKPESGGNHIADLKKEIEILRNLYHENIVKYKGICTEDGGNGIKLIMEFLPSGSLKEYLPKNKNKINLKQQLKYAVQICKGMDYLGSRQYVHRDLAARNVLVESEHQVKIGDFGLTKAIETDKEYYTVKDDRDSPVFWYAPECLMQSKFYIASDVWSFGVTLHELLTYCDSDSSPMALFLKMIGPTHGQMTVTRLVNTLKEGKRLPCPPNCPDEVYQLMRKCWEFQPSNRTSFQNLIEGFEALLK", "assay": "SelectScreen kinase assay", "conditions": "for Inhibition at 1 µM (%): JAK1, ZLYTE, ATP Km app"}, "MAP2K4 (MEK4)": {"biological_target": "T1, MAP2K4 (MEK4) (Homo sapiens, UniProt P45985)", "T1 sequence (P45985 1-399)": "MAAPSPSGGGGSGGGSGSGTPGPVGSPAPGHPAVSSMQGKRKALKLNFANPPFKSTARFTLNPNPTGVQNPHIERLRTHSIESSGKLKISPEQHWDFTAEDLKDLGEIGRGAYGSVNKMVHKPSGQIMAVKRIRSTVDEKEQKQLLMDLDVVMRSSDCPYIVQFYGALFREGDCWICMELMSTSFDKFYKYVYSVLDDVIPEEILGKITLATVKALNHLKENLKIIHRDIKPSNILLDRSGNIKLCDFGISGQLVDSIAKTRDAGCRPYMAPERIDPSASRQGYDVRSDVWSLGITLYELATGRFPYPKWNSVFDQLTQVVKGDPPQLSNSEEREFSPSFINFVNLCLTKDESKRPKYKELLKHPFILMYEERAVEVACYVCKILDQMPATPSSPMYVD", "assay": "SelectScreen kinase assay"}, "MAP3K10 (MLK2)": {"biological_target": "MAP3K10 (MLK2) (Homo sapiens, UniProt Q02779)", "sequence (Q02779 whole entry)": "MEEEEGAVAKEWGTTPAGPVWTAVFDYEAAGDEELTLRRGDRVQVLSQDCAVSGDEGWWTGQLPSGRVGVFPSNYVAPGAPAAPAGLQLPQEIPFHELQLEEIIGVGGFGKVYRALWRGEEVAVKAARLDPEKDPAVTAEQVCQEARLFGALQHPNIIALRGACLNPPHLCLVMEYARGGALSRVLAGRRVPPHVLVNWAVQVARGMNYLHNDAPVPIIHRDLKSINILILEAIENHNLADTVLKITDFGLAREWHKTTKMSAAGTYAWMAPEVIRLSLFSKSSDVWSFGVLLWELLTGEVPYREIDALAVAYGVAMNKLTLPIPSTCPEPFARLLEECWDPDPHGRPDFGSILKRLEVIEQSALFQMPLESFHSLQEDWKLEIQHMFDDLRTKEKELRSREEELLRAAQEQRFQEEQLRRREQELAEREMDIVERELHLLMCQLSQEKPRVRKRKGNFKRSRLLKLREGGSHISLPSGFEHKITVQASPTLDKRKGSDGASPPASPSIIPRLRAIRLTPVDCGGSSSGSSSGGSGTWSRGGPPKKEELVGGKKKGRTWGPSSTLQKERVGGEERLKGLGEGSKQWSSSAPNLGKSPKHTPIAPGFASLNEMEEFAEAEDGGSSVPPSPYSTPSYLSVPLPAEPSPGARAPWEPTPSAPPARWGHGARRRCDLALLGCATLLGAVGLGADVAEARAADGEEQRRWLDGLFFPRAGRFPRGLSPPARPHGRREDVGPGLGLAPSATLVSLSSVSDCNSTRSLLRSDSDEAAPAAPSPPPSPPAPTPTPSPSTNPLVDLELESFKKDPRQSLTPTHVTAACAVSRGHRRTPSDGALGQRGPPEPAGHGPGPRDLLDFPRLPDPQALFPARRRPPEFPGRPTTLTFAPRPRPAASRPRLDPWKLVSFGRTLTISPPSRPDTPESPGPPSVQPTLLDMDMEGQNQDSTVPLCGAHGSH", "assay": "SelectScreen kinase assay"}, "MAPK9 (JNK2)": {"biological_target": "MAPK9 (JNK2) (Homo sapiens, UniProt P45984)", "sequence (P45984 whole entry)": "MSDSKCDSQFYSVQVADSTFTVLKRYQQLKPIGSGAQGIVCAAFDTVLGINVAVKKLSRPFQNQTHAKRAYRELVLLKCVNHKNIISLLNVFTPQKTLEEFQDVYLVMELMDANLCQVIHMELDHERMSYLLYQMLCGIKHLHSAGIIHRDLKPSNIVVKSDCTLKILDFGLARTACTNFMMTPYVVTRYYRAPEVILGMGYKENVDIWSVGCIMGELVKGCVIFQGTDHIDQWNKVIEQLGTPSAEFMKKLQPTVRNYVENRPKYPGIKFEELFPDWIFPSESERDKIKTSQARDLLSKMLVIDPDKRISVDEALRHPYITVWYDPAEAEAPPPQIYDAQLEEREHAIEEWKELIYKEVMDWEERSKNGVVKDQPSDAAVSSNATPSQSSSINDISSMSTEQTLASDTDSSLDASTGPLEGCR", "assay": "SelectScreen kinase assay"}, "MERTK (cMER)": {"biological_target": "MERTK (cMER) (Homo sapiens, UniProt Q12866)", "assay": "SelectScreen kinase assay"}, "MLCK (MLCK2)": {"biological_target": "T2, MLCK (MLCK2) (Homo sapiens, UniProt Q32MK0)", "T2 sequence (Q32MK0 1-819)": "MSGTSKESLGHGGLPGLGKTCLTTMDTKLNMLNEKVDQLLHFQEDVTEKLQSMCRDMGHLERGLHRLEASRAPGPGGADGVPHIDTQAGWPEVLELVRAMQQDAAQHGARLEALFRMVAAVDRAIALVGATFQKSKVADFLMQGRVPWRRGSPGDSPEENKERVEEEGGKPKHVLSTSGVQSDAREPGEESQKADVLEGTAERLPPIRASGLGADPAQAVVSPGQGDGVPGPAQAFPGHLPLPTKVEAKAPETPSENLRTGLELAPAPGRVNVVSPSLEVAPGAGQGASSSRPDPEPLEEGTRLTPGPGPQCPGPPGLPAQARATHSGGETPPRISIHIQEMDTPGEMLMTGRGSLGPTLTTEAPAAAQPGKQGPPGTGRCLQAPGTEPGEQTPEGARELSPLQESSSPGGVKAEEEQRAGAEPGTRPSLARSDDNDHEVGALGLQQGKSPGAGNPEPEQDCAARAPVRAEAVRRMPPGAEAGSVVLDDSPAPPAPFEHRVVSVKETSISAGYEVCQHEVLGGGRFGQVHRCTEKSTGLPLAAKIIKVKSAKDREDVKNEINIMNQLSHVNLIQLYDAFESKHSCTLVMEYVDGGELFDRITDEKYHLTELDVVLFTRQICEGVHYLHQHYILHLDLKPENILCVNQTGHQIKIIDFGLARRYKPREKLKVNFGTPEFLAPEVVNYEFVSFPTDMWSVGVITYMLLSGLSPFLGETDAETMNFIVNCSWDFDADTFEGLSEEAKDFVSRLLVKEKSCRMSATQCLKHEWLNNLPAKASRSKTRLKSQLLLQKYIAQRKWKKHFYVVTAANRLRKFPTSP", "assay": "SelectScreen kinase assay"}, "NEK4": {"biological_target": "NEK4 (Homo sapiens, UniProt P51957)", "sequence (P51957 whole entry)": "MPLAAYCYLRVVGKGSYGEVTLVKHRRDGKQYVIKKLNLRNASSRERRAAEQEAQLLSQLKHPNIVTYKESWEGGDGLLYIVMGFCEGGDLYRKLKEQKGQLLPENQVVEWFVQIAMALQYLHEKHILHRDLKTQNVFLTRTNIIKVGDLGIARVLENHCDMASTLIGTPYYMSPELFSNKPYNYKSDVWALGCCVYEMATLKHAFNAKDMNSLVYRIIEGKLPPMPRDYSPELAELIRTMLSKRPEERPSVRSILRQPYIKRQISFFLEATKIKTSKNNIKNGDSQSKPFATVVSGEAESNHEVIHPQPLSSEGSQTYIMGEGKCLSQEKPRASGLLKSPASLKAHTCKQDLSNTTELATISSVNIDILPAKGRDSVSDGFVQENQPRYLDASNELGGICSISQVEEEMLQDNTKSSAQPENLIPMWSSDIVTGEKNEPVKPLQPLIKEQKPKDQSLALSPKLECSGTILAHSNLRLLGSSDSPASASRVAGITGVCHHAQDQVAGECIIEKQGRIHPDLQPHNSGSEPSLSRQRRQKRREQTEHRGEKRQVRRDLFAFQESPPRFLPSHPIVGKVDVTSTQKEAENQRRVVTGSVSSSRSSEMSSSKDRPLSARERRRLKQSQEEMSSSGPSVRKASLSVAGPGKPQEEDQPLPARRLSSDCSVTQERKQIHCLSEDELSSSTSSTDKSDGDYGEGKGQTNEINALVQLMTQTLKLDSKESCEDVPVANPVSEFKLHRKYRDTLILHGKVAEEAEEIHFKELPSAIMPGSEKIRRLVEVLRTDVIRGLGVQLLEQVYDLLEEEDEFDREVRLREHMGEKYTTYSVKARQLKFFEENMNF", "assay": "SelectScreen kinase assay"}, "NEK9": {"biological_target": "NEK9 (Homo sapiens, UniProt Q8TD19)", "sequence (Q8TD19 whole entry)": "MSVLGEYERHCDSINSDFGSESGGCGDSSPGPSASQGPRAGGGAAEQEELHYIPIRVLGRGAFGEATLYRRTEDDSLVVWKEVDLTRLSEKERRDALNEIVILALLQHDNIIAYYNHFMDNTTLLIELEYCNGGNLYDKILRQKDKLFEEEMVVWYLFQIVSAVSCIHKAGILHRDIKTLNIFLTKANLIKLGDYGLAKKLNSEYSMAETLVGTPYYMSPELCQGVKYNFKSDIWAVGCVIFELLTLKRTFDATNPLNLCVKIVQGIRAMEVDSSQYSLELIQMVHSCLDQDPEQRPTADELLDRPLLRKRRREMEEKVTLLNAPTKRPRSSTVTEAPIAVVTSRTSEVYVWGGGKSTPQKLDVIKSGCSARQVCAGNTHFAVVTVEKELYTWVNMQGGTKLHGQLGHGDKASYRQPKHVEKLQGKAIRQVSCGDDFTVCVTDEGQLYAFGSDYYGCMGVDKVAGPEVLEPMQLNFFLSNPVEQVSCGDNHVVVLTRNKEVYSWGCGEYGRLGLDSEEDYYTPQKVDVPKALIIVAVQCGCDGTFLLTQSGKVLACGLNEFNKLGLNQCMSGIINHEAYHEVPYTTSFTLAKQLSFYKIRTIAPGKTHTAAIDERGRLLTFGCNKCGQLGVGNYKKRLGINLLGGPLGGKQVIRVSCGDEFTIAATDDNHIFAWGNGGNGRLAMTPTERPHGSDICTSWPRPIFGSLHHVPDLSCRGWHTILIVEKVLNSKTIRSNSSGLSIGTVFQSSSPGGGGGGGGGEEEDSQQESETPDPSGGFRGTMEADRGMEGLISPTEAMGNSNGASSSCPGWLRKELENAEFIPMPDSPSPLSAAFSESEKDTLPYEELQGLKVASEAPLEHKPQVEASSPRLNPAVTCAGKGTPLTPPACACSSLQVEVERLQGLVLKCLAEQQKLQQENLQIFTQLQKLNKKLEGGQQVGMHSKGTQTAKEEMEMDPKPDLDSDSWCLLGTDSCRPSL", "assay": "SelectScreen kinase assay"}, "PRKCB2 (PKC beta II)": {"biological_target": "PRKCB2 (PKC beta II) (Homo sapiens, UniProt P05771)", "assay": "SelectScreen kinase assay", "conditions": "1 h, 1 μM WEL028, 1 h preincubation"}, "SRMS (Srm)": {"biological_target": "SRMS (Srm) (Homo sapiens, UniProt Q9H3Y6)", "sequence (Q9H3Y6 whole entry)": "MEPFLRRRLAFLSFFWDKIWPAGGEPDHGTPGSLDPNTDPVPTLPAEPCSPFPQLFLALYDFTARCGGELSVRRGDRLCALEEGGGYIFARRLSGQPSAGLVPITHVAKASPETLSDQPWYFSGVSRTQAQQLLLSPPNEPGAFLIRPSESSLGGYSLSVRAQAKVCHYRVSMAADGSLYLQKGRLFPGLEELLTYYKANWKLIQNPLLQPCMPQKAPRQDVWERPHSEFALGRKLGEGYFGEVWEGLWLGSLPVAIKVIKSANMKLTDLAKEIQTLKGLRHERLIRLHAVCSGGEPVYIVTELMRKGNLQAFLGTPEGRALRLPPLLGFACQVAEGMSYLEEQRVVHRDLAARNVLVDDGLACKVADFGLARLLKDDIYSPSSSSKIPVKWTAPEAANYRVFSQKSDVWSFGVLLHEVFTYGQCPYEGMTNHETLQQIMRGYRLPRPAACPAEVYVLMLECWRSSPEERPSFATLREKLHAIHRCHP", "assay": "SelectScreen kinase assay"}, "STK17B (DRAK2)": {"biological_target": "T3, STK17B (DRAK2) (Homo sapiens, UniProt O94768)", "T3 sequence (O94768 1-372)": "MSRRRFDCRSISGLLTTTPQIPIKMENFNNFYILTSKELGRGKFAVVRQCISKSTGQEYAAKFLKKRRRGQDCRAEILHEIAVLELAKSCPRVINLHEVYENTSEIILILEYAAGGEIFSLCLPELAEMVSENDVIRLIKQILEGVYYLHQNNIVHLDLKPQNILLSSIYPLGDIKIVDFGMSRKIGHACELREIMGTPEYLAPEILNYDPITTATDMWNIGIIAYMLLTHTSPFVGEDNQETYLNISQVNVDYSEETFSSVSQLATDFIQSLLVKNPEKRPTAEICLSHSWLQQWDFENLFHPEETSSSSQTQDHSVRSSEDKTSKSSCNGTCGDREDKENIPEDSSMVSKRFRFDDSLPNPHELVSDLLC", "assay": "SelectScreen kinase assay"}, "STK32C (YANK3)": {"biological_target": "STK32C (YANK3) (Homo sapiens, UniProt Q86UX6)", "assay": "SelectScreen kinase assay"}, "~40 kDa protein": {"biological_target": "~40 kDa protein (Homo sapiens, UniProt P28482)", "assay": "Gel-based target engagement in HL-60 neutrophils", "conditions": "HL-60, read-out: Inhibition of off-target labeling"}, "FES^S700C": {"biological_target": "FES^S700C (Homo sapiens, UniProt P07332, S700C)", "assay": "Time-dependent probe displacement by WEL033 in lysate"}, "[1]": {"conditions": "1 h, 1 μM WEL028, 1 h preincubation"}}, "note": "“And” between values parts separate entries of the source, which are not always exact repeats. Equal values may be shown once. Read-outs that look alike come from different tables or passages of the source."}
{"smiles": "C#CCOc1ccc(Nc2ncc(Cl)c(Nc3ccccc3NC(=O)C=C)n2)c(OC)c1", "note": "[Compound 6]", "values": [{"measurement": "Inhibition (%)", "setting": "JAK1; 1 μM WEL028, 1 h preincubation", "result": -3, "unit": "%"}, {"measurement": "Inhibition at 1 µM (%)", "setting": "JAK1", "result": -2, "unit": "%"}, {"measurement": "Inhibition at 1 µM (%)", "setting": "JAK1; listed as WEL028, 1 µM", "result": -3, "unit": "%"}, {"measurement": "IC50", "setting": "MAP2K4 (MEK4)", "result": 3.98, "unit": "nM"}, {"measurement": "inhibition at 1 µM", "setting": "MAP2K4 (MEK4); [1]", "result": 104, "unit": "%"}, {"measurement": "Apparent fold selectivity", "setting": "MAP2K4 (MEK4); IC50 on that kinase divided by IC50 on FES^S700C", "result": 1, "unit": "fold"}, {"measurement": "inhibition at 1 µM", "setting": "MAP2K4 (MEK4); read-out: Inhibition at 1 µM (%), MAP2K4 (MEK4), 1 µM, LanthaScreen Binding", "result": 103, "unit": "%"}, {"measurement": "inhibition at 1 µM", "setting": "MAP3K10 (MLK2); [1]", "result": 4, "unit": "%"}, {"measurement": "Inhibition at 1 µM (%)", "setting": "MAP3K10 (MLK2); MAP3K10 (MLK2), 1 µM, LanthaScreen Binding, listed as WEL028, 1 µM", "result": 5, "unit": "%"}, {"measurement": "inhibition at 1 µM", "setting": "MAP3K10 (MLK2); read-out: Inhibition at 1 µM (%), MAP3K10 (MLK2), 1 µM, LanthaScreen Binding", "result": 4, "unit": "%"}, {"measurement": "Inhibition (%)", "setting": "MAPK9 (JNK2); 1 μM WEL028, 1 h preincubation", "result": 2, "unit": "%"}, {"measurement": "Inhibition at 1 µM (%)", "setting": "MAPK9 (JNK2); MAPK9 (JNK2), 1 µM, ZLYTE, ATP 100, listed as WEL028, 1 µM", "result": "-1% and 5%"}, {"measurement": "inhibition at 1 µM", "setting": "MERTK (cMER); [1]", "result": 4, "unit": "%"}, {"measurement": "Inhibition at 1 µM (%)", "setting": "MERTK (cMER); MERTK (cMER), 1 µM, ZLYTE, ATP Km app, listed as WEL028, 1 µM", "result": "0% and 9%"}, {"measurement": "inhibition at 1 µM", "setting": "MLCK (MLCK2); [1]", "result": 9, "unit": "%"}, {"measurement": "Inhibition at 1 µM (%)", "setting": "MLCK (MLCK2); MLCK (MLCK2), 1 µM, LanthaScreen Binding, listed as WEL028, 1 µM", "result": 8, "unit": "%"}, {"measurement": "inhibition at 1 µM", "setting": "MLCK (MLCK2); read-out: Inhibition at 1 µM (%), MLCK (MLCK2), 1 µM, LanthaScreen Binding", "result": 9, "unit": "%"}, {"measurement": "inhibition at 1 µM", "setting": "NEK4; [1]", "result": 4, "unit": "%"}, {"measurement": "Inhibition at 1 µM (%)", "setting": "NEK4; NEK4, 1 µM, ZLYTE, ATP Km app, listed as WEL028, 1 µM", "result": 5, "unit": "%"}, {"measurement": "inhibition at 1 µM", "setting": "NEK4; read-out: Inhibition at 1 µM (%), NEK4, 1 µM, ZLYTE, ATP Km app", "result": 4, "unit": "%"}, {"measurement": "inhibition at 1 µM", "setting": "NEK9; [1]", "result": -8, "unit": "%"}, {"measurement": "Inhibition at 1 µM (%)", "setting": "NEK9; NEK9, 1 µM, ZLYTE, ATP Km app, listed as WEL028, 1 µM", "result": "-7% and -9%"}, {"measurement": "inhibition at 1 µM", "setting": "PRKCB2 (PKC beta II)", "result": 0, "unit": "%"}, {"measurement": "Inhibition at 1 µM (%)", "setting": "SRMS (Srm); 1 µM, ZLYTE, ATP Km app, listed as WEL028, 1 µM", "result": 8, "unit": "%"}, {"measurement": "inhibition at 1 µM", "setting": "SRMS (Srm); [1]", "result": 7, "unit": "%"}, {"measurement": "inhibition at 1 µM", "setting": "SRMS (Srm); read-out: Inhibition at 1 µM (%), 1 µM, ZLYTE, ATP Km app", "result": 6, "unit": "%"}, {"measurement": "Inhibition at 1 µM (%)", "setting": "STK17B (DRAK2); 1 µM, LanthaScreen Binding, listed as WEL028, 1 µM", "result": 8, "unit": "%"}, {"measurement": "inhibition at 1 µM", "setting": "STK17B (DRAK2); [1]", "result": 9, "unit": "%"}, {"measurement": "inhibition at 1 µM", "setting": "STK17B (DRAK2); read-out: Inhibition at 1 µM (%), 1 µM, LanthaScreen Binding", "result": 9, "unit": "%"}, {"measurement": "inhibition at 1 µM", "setting": "STK32C (YANK3); 1 h", "result": 3, "unit": "%"}, {"measurement": "inhibition at 1 µM", "setting": "STK32C (YANK3); read-out: Inhibition at 1 µM (%)", "result": 3, "unit": "%"}, {"measurement": "inhibition at 0.1 µM", "setting": "~40 kDa protein", "result": "~10", "unit": "%"}, {"measurement": "IC80", "setting": "FES^S700C; read-out: IC80-concentration (20% remaining activity)", "result": 27, "unit": "nM"}, {"measurement": "Mode of action", "setting": "FES^S700C; recovery of WEL033 labeling after inhibitor at IC80", "result": "irreversible"}]}
